In patent US6143769A, “Phenylacetic acid benzylamides” (Karl Thomae GmbH, priority 1983, dated 2000):

What was measured:
Type in all cases: in vivo, human
[1] = test system: glucose; assay: Study 1: whole blood glucose, 2 mg AG-EE 388 ZW capsule, 12 healthy male volunteers; details: 2 mg capsule
[2] = Study 1: plasma concentration, non-stereoselective HPLC
[3] = Study 2: plasma concentration, HPLC; details: for concentration at 0.2 h: 0.20 h; for concentration at 0.5 h: 0.50 h; for concentration at 1.5 h: 1.50 h
Excerpt: Blood samples were taken at various times.

[4] = test system: glucose; assay: Study 3: whole blood glucose, single fasting test subject, crossover
[5] = human, plasma, po, 2 mg, 2 mg capsule, 4.00 h
[6] = human, plasma, po, 2 mg, 2 mg capsule, 5.00 h
[7] = human, plasma, po, 2 mg, 2 mg capsule, 6.00 h
[8] = human, plasma, po, 2 mg capsule p.o., read-out: Maximum concentration
[9] = human, plasma, po, 2 mg, 2 mg capsule
[10] = human, plasma, po, 2 mg, 2 mg tablet

In the case of `CCOc1cc(CC(=O)NC(CC(C)C)c2ccccc2N2CCCCC2)ccc1C(=O)O` (racemic) [AG-EE 388 ZW, 2-ethoxy-4-[N-[1-(2-piperidino-phenyl)-3-methyl-1-butyl]aminocarbonylmethyl]-benzoic acid], the Duration of activity [1] is reported as “about 5 hours”, the “Glucose, deviation from placebo” value ([1]; 0 h) is reported as “n.s” and the “Glucose, deviation from placebo” value ([1]; 0.50 h) is reported as “n.s”. The “Glucose, deviation from placebo” value ([1]; 0.75 h) was -9%, the “Glucose, deviation from placebo” value ([1]; 1.00 h) was -17% and the “Glucose, deviation from placebo” value ([1]; 1.50 h) was -27%. The “Glucose, deviation from placebo” value ([1]; 2.00 h) was -24%, the “Glucose, deviation from placebo” value ([1]; 2.50 h) was -19% and the “Glucose, deviation from placebo” value ([1]; 3.00 h) was “n.s”. For the same compound, the “Glucose, deviation from placebo” value ([1]; 4.00 h) was -24%, the “Glucose, deviation from placebo” value ([1]; 5.00 h) was -9% and the “Glucose, deviation from placebo” value ([1]; 5.50 h (lunch)) was “n.s”. For the same compound, the “Glucose, deviation from placebo” value ([1]; 6.00 h) was “n.s”, the “Glucose, deviation from placebo” value ([1]; 7.00 h (snack)) was “n.s” and the “Glucose, deviation from placebo” value ([1]; 8.00 h) was -5%. For the same compound, the “Glucose, deviation from placebo” value ([1]; 9.00 h) was “n.s”, the “Glucose, deviation from placebo” value ([1]; 10.00 h (dinner)) was “n.s” and the “Concentration (mean)” value ([2]; 2 mg capsule, 0 h) was 0.0 ng/mL. For the same compound, the “Concentration (mean)” value ([2]; 2 mg capsule, 10.00 h) was 0.0 ng/mL, the “Time at which level reaches the detection limit” value ([2]; 2 mg capsule, limit 5 ng/ml) was 5 h and the concentration at 0.5 h ([2]; human, plasma, po, 2 mg, 2 mg capsule, 0.50 h) was 55.8 ng/mL. The concentration at 0.75 h ([2]; human, plasma, po, 2 mg, 2 mg capsule, 0.75 h) was 82.9 ng/mL, the concentration at 1 h ([2]; human, plasma, po, 2 mg, 2 mg capsule, 1.00 h) was 82.8 ng/mL and the concentration at 1.5 h ([2]; human, plasma, po, 2 mg, 2 mg capsule, 1.50 h) was 64.7 ng/mL. It also gave a concentration at 2 h ([2]; human, plasma, po, 2 mg, 2 mg capsule, 2.00 h) of 58.3 ng/mL, a concentration at 3 h ([2]; human, plasma, po, 2 mg, 2 mg capsule, 3.00 h) of 29.4 ng/mL and a concentration at 4 h [2, 5] of 16.3 ng/mL. The concentration at 5 h [2, 6] was 9 ng/mL, the concentration at 6 h [2, 7] was 4.2 ng/mL and the concentration at 8 h ([2]; human, plasma, po, 2 mg, 2 mg capsule, 8.00 h) was 1.2 ng/mL. The Cmax [2, 8] was 83 ± 18 ng/mL, the “Concentration (mean)” value ([3]; 2 mg capsule, 0 h) was 0.0 ng/mL and the “Concentration (mean)” value ([3]; 2 mg capsule, 4.00 h, listed as 388, 240 min) was 17 ± 5 ng/mL. For the same compound, the “Concentration (mean)” value ([3]; 2 mg capsule, 5.00 h, listed as 388, 300 min) was 12 ± 3 ng/mL, the “Concentration (mean)” value ([3]; 2 mg capsule, 6.00 h, listed as 388, 360 min) was 8 ± 4 ng/mL and the “Concentration (mean)” value ([3]; 2 mg capsule, 24.00 h) was 0.0 ng/mL. The “Rise and peak of plasma level, tablet versus capsule” value ([3]; 2 mg p.o.) was “rises rather more rapidly after administration of the tablet and reaches its peak somewhat earlier”, the “Time at which level reaches / falls below the detection limit” value ([3]; 2 mg p.o.) was no less than 6 h and the “Time at which level reaches / falls below the detection limit” value ([3]; 2 mg p.o., listed as AG-EE 398 ZW) was “about 6 hours”. For the same compound, the Maximum concentration ([3]; 2 mg tablet p.o.) was 83.5 ± 25.5 ng/mL, the “Concentration (mean)” value ([3]; 2 mg tablet, 0 h) was 0.0 ng/mL and the “Concentration (mean)” value ([3]; 2 mg tablet, 4.00 h, 240 min) was 19.1 ng/mL. For the same compound, the “Concentration (mean)” value ([3]; 2 mg tablet, 24.00 h) was 0.0 ng/mL, the concentration at 0.2 h [3, 9] was 0.9 ng/mL and the concentration at 0.33 h [3, 9] was 17.5 ng/mL. The concentration at 0.5 h [3, 9] was 44.9 ng/mL, the concentration at 0.75 h [3, 9] was 66.4 ng/mL and the concentration at 1 h [3, 9] was 73.7 ng/mL. It also gave a concentration at 1.5 h [3, 9] of 65.1 ng/mL, a concentration at 2 h [3, 9] of 50.8 ng/mL and a concentration at 3 h [3, 9] of 27.9 ng/mL. The concentration at 4 h [3, 5] was 16.8 ng/mL, the concentration at 5 h [3, 6] was 12.2 ng/mL and the concentration at 6 h [3, 7] was 7.8 ng/mL. It also gave a concentration at 9 h [3, 9] of 3.3 ng/mL, a concentration at 0.2 h [3, 10] of 15 ng/mL and a concentration at 0.33 h [3, 10] of 55.6 ng/mL. The concentration at 0.5 h [3, 10] was 75.6 ng/mL, the concentration at 0.75 h [3, 10] was 83.5 ng/mL and the concentration at 1 h [3, 10] was 81.3 ng/mL. It also gave a concentration at 1.5 h [3, 10] of 65.9 ng/mL, a concentration at 2 h [3, 10] of 51.3 ng/mL and a concentration at 3 h [3, 10] of 32.4 ng/mL. It also gave a concentration at 5 h ([3]; human, plasma, po, 2 mg, 2 mg tablet, 5.00 h) of 13.2 ng/mL, a concentration at 6 h ([3]; human, plasma, po, 2 mg, 2 mg tablet, 6.00 h) of 9.5 ng/mL and a concentration at 9 h [3, 10] of 5.2 ng/mL. For the same compound, the Cmax [3, 8] was 74 ± 15 ng/mL, the “Time of maximum blood sugar reduction” value ([4]; 2 mg) was 2.0 h and the “Glucose, deviation against t = 0” value ([4]; 2 mg capsule, 0 h) was 0%. For the same compound, the “Glucose, deviation against t = 0” value ([4]; 2 mg, 0.50 h) was 0%, the “Glucose, deviation against t = 0” value ([4]; 2 mg, 0.75 h) was 0% and the “Glucose, deviation against t = 0” value ([4]; 2 mg, 1.00 h) was -5%. For the same compound, the “Glucose, deviation against t = 0” value ([4]; 2 mg, 1.25 h) was -12%, the “Glucose, deviation against t = 0” value ([4]; 2 mg, 1.50 h) was -18% and the “Glucose, deviation against t = 0” value ([4]; 2 mg, 1.75 h) was -23%. The “Glucose, deviation against t = 0” value ([4]; 2 mg, 2.00 h) was -29%, the “Glucose, deviation against t = 0” value ([4]; 2 mg, 2.50 h) was -27% and the “Glucose, deviation against t = 0” value ([4]; 2 mg, 3.00 h) was -21%. The “Glucose, deviation against t = 0” value ([4]; 2 mg, 4.00 h) was -17% and the “Glucose, deviation against t = 0” value ([4]; 2 mg, 5.00 h) was -17%.
